EC50 and CC50 data for nine molecules are collected here from US10029984B2, “Mono- or di-substituted indole derivatives as dengue viral replication inhibitors” (Janssen Pharmaceuticals, Inc., priority 2015, dated 2018).

pEC50: −log10 of the molar value.

One series has as its system DENV-2 16681 strain. Briefly: DENV-2 antiviral assay (eGFP-labeled virus in Vero cells). Particulars: DENV-2 16681 eGFP, MOI 0.5, 3 days. Format: cell-based, Dengue virus. In short, it runs like this: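 Vero cells were pre-plated with compound overnight, then infected with eGFP-labeled DENV-2 16681 at MOI 0.5 and incubated 3 days at 37 °C. eGFP fluorescence read by automated microscopy; 9-point 4-fold dilutions (25 μM–0.00038 μM final) in quadruplicate, EC50 by linear interpolation versus virus and cell controls.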

A short description of series [1]: in vitro. Format: cell-based. Particulars: African green monkey, CC50. In short, it runs like this:
(§1)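 On the same plates after eGFP read-out, resazurin was added and cells incubated a further 5 h at 37 °C, 5% CO2; resorufin fluorescence read with 530 nm excitation. CC50 is the concentration halving resazurin conversion versus cell control; SI = CC50/EC50.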

Series [2] is described as follows: in vitro. Format: cell-based. Particulars: African green monkey, CC50. As for the experimental part: (§2) The antiviral activity of the compounds of the invention was tested against DENV-1 strain TC974#666 (NCPV; Table 6), DENV-2 strain 16681 (Table 7), DENV-3 strain H87 (NCPV; Table 8) and DENV-4 strains H241 (NCPV; Table 9) in a RT-qPCR assay. Therefore, Vero cells were infected with either DENV-1, or -2, or -3, or -4 in the presence or absence of test compounds. At day 3 post-infection, the cells were lysed and cell lysates were used to prepare cDNA of both a viral target (the 3′UTR of DENV; table 2) and a cellular reference gene (β-actin, table 2). Subsequently, a duplex real time PCR was performed on a Lightcycler480 instrument. The generated Cp value is inversely proportional to the amount of RNA expression of these targets. Inhibition of DENV replication by a test compound result in a shift of Cp's for the 3′UTR gene. On the other hand, if a test compound is toxic to the cells, a similar effect on β-actin expression will be observed. The comparative ΔΔCp method is used to calculate EC50, which is based on the relative gene expression of the target gene (3′UTR) normalized with the cellular housekeeping gene (β-actin).
(§3) The culture medium consisted of minimal essential medium supplemented with 2% of heat-inactivated fetal calf serum, 0.04% gentamycin (50 mg/mL) and 2 mM of L-glutamine. Vero cells, obtained from ECACC, were suspended in culture medium and 75 μL/well was added in 96-well plates (10000 cells/well), which already contain the antiviral compounds. Typically, these plates contain a 4-fold serial dilution of 9 dilution steps of the test compound at 200 times the final concentration in 100% DMSO (500 nL; final concentration range: 25 μM-0.00038 μM). In addition, each plate contains wells which are assigned as virus controls (containing cells and virus in the absence of compound) and cell controls (containing cells in the absence of virus and compound). Once the cells were added in the plates, the plates were incubated in a fully humidified incubator (37° C., 5% CO2) until the next day. Then, DENV-1 strain TC974#666 at an MOI of 0.6, DENV-2 strain 16681 at an MOI of 0.01, DENV-3 strain H87 at an MOI of 1.0 and DENV-4 strains H241 at an MOI of 0.2 and SG/06K2270DK1/2005 at an MOI of 0.16, were added. Therefore, 25 μL of virus suspension was added to all the wells containing test compound and to the wells assigned as virus control. In parallel, 25 μL of culture medium was added to the cell controls. Next, the plates were incubated for 3 days in a fully humidified incubator (37° C., 5% CO2). After 3 days, the supernatant was removed from the wells and the cells were washed twice with ice-cold PBS (˜100 μL). The cell pellets within the 96-well plates were stored at −80° C. for at least 1 day. Next, RNA was extracted using the Cells-to-CT™ lysis kit, according to the manufacture's guideline (Applied Biosystems). The cell lysates can be stored at −80° C. or immediately used in the reverse transcription step.
(§4) Finally, a RT-qPCR mix was prepared, mix C (table 4A), dispensed in 96-well LightCycler qPCR plates to which 3 μL of cDNA was added and the qPCR was performed according to the conditions in table 4B on a LightCycler 480. Using the LightCycler software and an in-house LIMS system, dose response curves for each compound were calculated and the half maximal effective concentration (EC50) and the half maximal cytotoxic concentration (CC50) were determined.
The source holds these as a separate data set.

For a further series, the system named is DENV-3 strain H87. Kind of series: Tetravalent RT-qPCR assay Protocol A, serotype 3. The class given is cell-based. Particulars: Dengue virus, DENV3, 72 h; RT-qPCR serotype 3 H87, Vero cells, day 3. As for the experimental part:
as §2, §3
(§5) In preparation of the reverse transcription step, mix A (table 3A) was prepared and 7.57 μL/well was dispensed in a 96-well plate. After addition of 5 μL of the cell lysates, a five minute denaturation step at 75° C. was performed (table 3B). Afterwards, 7.43 μL of mix B was added (table 3C) and the reverse transcription step was initiated (table 3D) to generate cDNA.
as §4

Another series deals with DENV-2 strain 16681. Briefly: Tetravalent RT-qPCR assay Protocol A, serotype 2. Particulars: Dengue virus, DENV2, 72 h; RT-qPCR serotype 2 16681, Vero cells, day 3. Format: cell-based. As for the experimental part:
as §2, §3, §5, §4

For the next series, the system named is DENV-1 strain TC974#666. Briefly: Tetravalent RT-qPCR assay Protocol A, serotype 1. Format: cell-based. Conditions: Dengue virus, DENV1, 72 h; RT-qPCR serotype 1 TC974#666, Vero cells, day 3. As to the method:
as §2, §3, §5, §4

In the next series the test system is DENV-4 strains H241. Briefly: Tetravalent RT-qPCR assay Protocol A, serotype 4. Conditions: Dengue virus, DENV4, 72 h; RT-qPCR serotype 4 H241, Vero cells, day 3. The class given is cell-based. As to the method: as §2, §3, §5, §4
The test system of the next series is Vero cells. Briefly: in vitro. Conditions: African green monkey. Format: cell-based. Put shortly:
as §1

Consider `COc1cc(NC(C(=O)c2c[nH]c3c(C)c(F)ccc23)c2ccc(F)cc2OC)cc(S(C)(=O)=O)c1` (single isomer, unassigned) [Enantiomer 2A, 2-(4-fluoro-2-methoxyphenyl)-1-(6-fluoro-7-methyl-1H-indol-3-yl)-2-((3-methoxy-5-(methylsulfonyl)phenyl)amino)ethanone], for which the pEC50 was 9.11 in the series on DENV-2 16681 strain (listed as 2A*); 7.23 with DENV-3 strain H87; 9.07 in the series on DENV-2 strain 16681; 8.23 in the series with DENV-1 strain TC974#666; 6.91 in the series on DENV-4 strains H241. The midpoint of cytotoxicity in “in vitro [1]”, the CC50, lay at 6100 nM. In the series “in vitro [2]”, the CC50 at 3 days came out at 2920 nM.
With `COc1cc(NC(C(=O)c2c[nH]c3ccc(OC(F)(F)F)cc23)c2ccc(F)cc2OC)cc(S(C)(=O)=O)c1` (single isomer, unassigned) [Enantiomer 18A, 2-(4-fluoro-2-methoxyphenyl)-2-((3-methoxy-5-(methylsulfonyl)phenyl)amino)-1-(5-(trifluoromethoxy)-1H-indol-3-yl)ethanone], the pEC50 was 10.07 in the series with DENV-2 16681 strain (listed as 18A*); 8.12 in the series with DENV-3 strain H87; 9.85 with DENV-2 strain 16681; 9.45 in the series on DENV-1 strain TC974#666; 7.74 in the series on DENV-4 strains H241. In the series on Vero cells, it took 3100 nM to reach half-maximal cytotoxicity (CC50). The same molecule returned a 50% cytotoxic concentration (CC50) at 3 days in the series “in vitro [2]” of 3010 nM.
`COc1cc(NC(C(=O)c2c[nH]c3cc(OC)c(F)cc23)c2ccc(F)cc2OC)cc(S(C)(=O)=O)c1` (single isomer, unassigned) [Enantiomer 11A, 2-(4-fluoro-2-methoxyphenyl)-1-(5-fluoro-6-methoxy-1H-indol-3-yl)-2-((3-methoxy-5-(methylsulfonyl)phenyl)amino)ethanone]: the negative logarithm of the EC50 (pEC50) in the series with DENV-2 16681 strain (listed as 11A*) was 8.96; in the series with DENV-3 strain H87, 7.03; in the series on DENV-2 strain 16681, 8.96; with DENV-1 strain TC974#666, 7.96; in the series with DENV-4 strains H241, 6.65. Further, in the series with Vero cells, the CC50 stood at 6600 nM. Moreover, in “in vitro [2]”, the CC50 at 3 days turned out to be 4380 nM.
Turning to `COc1cc(NC(C(=O)c2c[nH]c3cc(F)c(C)cc23)c2ccc(F)cc2OC)cc(S(C)(=O)=O)c1` (single isomer, unassigned) [Enantiomer 14A, 2-(4-fluoro-2-methoxyphenyl)-1-(6-fluoro-5-methyl-1H-indol-3-yl)-2-((3-methoxy-5-(methylsulfonyl)phenyl)amino)ethanone], the pEC50 with DENV-2 16681 strain (listed as 14A*) is 9.36; with DENV-3 strain H87, 7.88; in the series with DENV-2 strain 16681 it was 9.25; in the series with DENV-1 strain TC974#666 it was 8.85; with DENV-4 strains H241 it was 7.16. For the same molecule, the CC50 with Vero cells was 3400 nM. In “in vitro [2]”, this molecule came in with a cytotoxic concentration (CC50) at 3 days of 2420 nM.
As for `COc1cc(NC(C(=O)c2c[nH]c3cc(Cl)ccc23)c2ccc(F)cc2OC)cc(S(C)(=O)=O)c1` (single isomer, unassigned) [Enantiomer 4A, 1-(6-chloro-1H-indol-3-yl)-2-(4-fluoro-2-methoxyphenyl)-2-((3-methoxy-5-(methylsulfonyl)phenyl)amino)ethanone], the pEC50 with DENV-2 16681 strain (listed as 4A*) was 9.30; with DENV-3 strain H87, 7.26; in the series with DENV-2 strain 16681, 9.42; in the series with DENV-1 strain TC974#666 it was 8.37; in the series on DENV-4 strains H241 it was 6.88. Further, the CC50 with Vero cells was 4400 nM. Further, in the series “in vitro [2]”, the midpoint of cytotoxicity, the CC50 at 3 days, lay at 3590 nM.
As for `COc1cc(NC(C(=O)c2c[nH]c3cc(C)c(F)cc23)c2ccc(F)cc2OC)cc(S(C)(=O)=O)c1` (single isomer, unassigned) [Enantiomer 9A, 2-(4-fluoro-2-methoxyphenyl)-1-(5-fluoro-6-methyl-1H-indol-3-yl)-2-((3-methoxy-5-(methylsulfonyl)phenyl)amino)ethanone], the pEC50 with DENV-2 16681 strain (listed as 9A*) is 8.96; with DENV-3 strain H87, 6.98; with DENV-2 strain 16681, 8.95; in the series on DENV-1 strain TC974#666, 8.00; in the series on DENV-4 strains H241 it was 6.62. For the same molecule, the CC50 with Vero cells is 4800 nM. It took 4040 nM to reach half-maximal cytotoxicity in the series “in vitro [2]” (CC50 at 3 days).
`COc1cc(NC(C(=O)c2c[nH]c3ccc(C(F)(F)F)cc23)c2ccc(F)cc2OC)cc(S(C)(=O)=O)c1` (single isomer, unassigned) [Enantiomer 17B, 2-(4-fluoro-2-methoxyphenyl)-2-((3-methoxy-5-(methylsulfonyl)phenyl)amino)-1-(5-(trifluoromethyl)-1H-indol-3-yl)ethanone]: the pEC50 was 9.70 in the series with DENV-2 16681 strain (listed as 17B*); 8.14 in the series on DENV-3 strain H87; 10.04 in the series on DENV-2 strain 16681; 9.32 in the series on DENV-1 strain TC974#666; 7.67 with DENV-4 strains H241. Besides, the CC50 in the series with Vero cells came to 3600 nM. Also, the CC50 at 3 days in the series “in vitro [2]” turned out to be 1610 nM.
As to `COc1cc(NC(C(=O)c2c[nH]c3c(F)cc(C)cc23)c2ccc(F)cc2OC)cc(S(C)(=O)=O)c1` (single isomer, unassigned) [Enantiomer 6A, 2-(4-fluoro-2-methoxyphenyl)-1-(7-fluoro-5-methyl-1H-indol-3-yl)-2-((3-methoxy-5-(methylsulfonyl)phenyl)amino)ethanone], the pEC50 in the series on DENV-2 16681 strain (listed as 6A*) is 8.57; in the series on DENV-3 strain H87, 6.91; in the series on DENV-2 strain 16681, 8.46; in the series on DENV-1 strain TC974#666 it was 8.01; in the series on DENV-4 strains H241 it was 6.62. Besides, in the series with Vero cells, the CC50 is 5000 nM. This molecule also returned a CC50 at 3 days in the series “in vitro [2]” of 4610 nM.
For the molecule `COc1cc(NC(C(=O)c2c[nH]c3cc(OC)c(Cl)cc23)c2ccc(F)cc2OC)cc(S(C)(=O)=O)c1` (single isomer, unassigned) [Enantiomer 16A, 1-(5-chloro-6-methoxy-1H-indol-3-yl)-2-(4-fluoro-2-methoxyphenyl)-2-((3-methoxy-5-(methylsulfonyl)phenyl)amino)ethanone], the pEC50 with DENV-2 16681 strain (listed as 16A*) was 9.38; in the series on DENV-3 strain H87, 7.60; with DENV-2 strain 16681, 9.73; in the series on DENV-1 strain TC974#666, 8.49; in the series with DENV-4 strains H241, 7.10. Also, the midpoint of cytotoxicity in the series with Vero cells, the CC50, lay at 3700 nM. This molecule also returned a CC50 at 3 days in “in vitro [2]” of 3170 nM.
